Laboratory results taken from patent US20160338955A1, “ANTIGEN-SPECIFIC IMMUNOTHERAPY USING TOLERIZING LIPOSOMES” (PLS-Design GmbH, priority 2015, published 2016).
In brackets after ≈: the same amount, converted by molar mass. Where two headings read alike, the source gives them in different places.

Legend:
[1] = system: experimental autoimmune encephalomyelitis; conditions: i.p. 5 μg/kg every 2 days; cited from earlier work
[2] = humans; cited from earlier work
[3] = Release of calcitriol from PLGA-PEG-PLGA hydrogels; type: physicochemical
Description: The biodegradable PLGA-PEG-PLGA triblock polymer described in this example has a PLG/PEG weight ratio of 2.3 (70/30), and a lactide/glycolide molar ratio of approx. 15/1. Synthesis of the triblock copolymer is performed as described in Example 2.1. An aliquot of 20 μl of a stock solution of calcitriol (2 mg/ml; 4.8 mM) in absolute ethanol (Cayman/Biomol GmbH) is combined with 160 μl of 25% gel solution and 20 μl of 10×PBS (final concentration of calcitriol: 0.2 mg/ml or 0.48 mM; final concentration of ethanol: 10%).
The mixture of 5.1.1 is incubated for 2 minutes at 37° C. to induce gelling and overlayed with 200 μl of 1×PBS. At frequent time points the supernatant is removed by pipetting and stored at 4° C. The removed supernatant is replaced by fresh 200 μl of 1×PBS. Controls of the same concentration of calcitriol in 1×PBS without gel are incubated and sampled in parallel.
After 48 hours the samples and controls are analysed using a Vitamin D ELISA kit, according to the manual of the manufacturer (Euroimmun AG, Luebeck). The assay is applicable for the determination of 25-0H vitamin D3 and other hydroxylated vitamin D3 molecules, and sufficiently linear from 4.0 to 120 ng/ml of 25-0H vitamin D3 (cross reactivity with calcitriol: 45%).
In brief, 20 μl of diluted samples are mixed with 230 μl of sample buffer containing a biotin-labed 25-0H vitamin D derivative. 200 μl of the mixture are transferred to an ELISA well of an 8-well strip and incubated at room temperature for 2 hours. The wells are washed with 3×300 μl washing buffer. Peroxidase labelled steptavidin-conjugate (100 μl) is added and incubated for a further hour. The well is again washed 3× with 300 μl washing buffer. Tetramethyl-benzidine (100 μl) substrate solution is added and developed until sufficient coloring. The reaction is stopped by addition of 100 μl 0.5 M sulphuric acid and measured spectrometrically at 420 nm with reference 650 nm.

Solubility = type: physicochemical
Description: In water, the solubility of OVA is about one gram per ml of water. Methylated BSA (mBSA) has been used for immunization at a concentration of 50 mg/ml of 0.9% NaCl (Gent et al., 2014).
In water DexP (MW 516.4) is soluble at a concentration of 50 mg/ml (product information of Santa Cruz Biotechnology), in PBS at a concentration of at least 25 mg/ml (Anderson et al., 2010), and in 10 mM HEPES and 135 mM NaCl, pH 6.7, at a concentration of at least 50 mg/ml (Koning et al., 2006).

[4] = rat, in vivo; cited from earlier work
[5] = cited from earlier work
[6] = system: Langerhans cells (LCs) and dermal dendritic cells (DDCs); conditions: LCs and DDCs primed in vitro; cited from earlier work

C=C1/C(=C\C=C2/CCC[C@]3(C)[C@@H]([C@H](C)CCCC(C)(C)O)CC[C@@H]23)C[C@@H](O)C[C@@H]1O [calcitriol, 1α,25-dihydroxyvitamin D3]
treated mice in which appearance of paralysis was prevented [1]: 70%
single oral dose relatively well tolerated (grade 1 to 2 adverse events) [2]: up to 165 μg
hydrogel-embedded calcitriol released ([3]; after 12 hours): approx. 45%
hydrogel-embedded calcitriol released ([3]; after 24 hours): approx. 65%
hydrogel-embedded calcitriol released ([3]; after 48 hours): approx. 85%
hydrogel-embedded calcitriol released ([3]; within the first 2 hours): approx. 15%
solubility (Solubility; 1:5 ethanol:PBS, pH 7.2, aqueous with cosolvent or surfactant or cyclodextrin, read-out: solubility in a 1:5 solution of ethanol:PBS, pH 7.2): ~0.15 mg/mL (≈ 0.36 mM)
solubility (Solubility; ethanol, organic solvent or mixture, read-out: solubility in ethanol): ~50 mg/mL (≈ 120 mM)
serum level of calcitriol to be kept below to avoid toxicity [4]: below 250 ng/ml
calcitriol dose that can be administered as single bolus i.p. injection ([5]; in 0.2 ml normal saline): up to 500 ng/mouse
calcitriol dose above which mice become hypercalcemic on day 2 or 3 ([5]; single bolus i.p.): higher than 750 ng/mouse
calcitriol concentration required to effectively induce FoxP3(+)Tregs and FoxP3(−)IL-10(+)TR1 cells [6]: 2.5 µM
